Results: US12016852B2, “Pyrrolidine glycosidase inhibitors” (Asceneuron SA, priority 2018, dated 2024)

Biological target: T1, Human O-GlcNAcase (His-Tagged hOGA) (Homo sapiens, UniProt O60502)
T1 sequence (O60502 1-916): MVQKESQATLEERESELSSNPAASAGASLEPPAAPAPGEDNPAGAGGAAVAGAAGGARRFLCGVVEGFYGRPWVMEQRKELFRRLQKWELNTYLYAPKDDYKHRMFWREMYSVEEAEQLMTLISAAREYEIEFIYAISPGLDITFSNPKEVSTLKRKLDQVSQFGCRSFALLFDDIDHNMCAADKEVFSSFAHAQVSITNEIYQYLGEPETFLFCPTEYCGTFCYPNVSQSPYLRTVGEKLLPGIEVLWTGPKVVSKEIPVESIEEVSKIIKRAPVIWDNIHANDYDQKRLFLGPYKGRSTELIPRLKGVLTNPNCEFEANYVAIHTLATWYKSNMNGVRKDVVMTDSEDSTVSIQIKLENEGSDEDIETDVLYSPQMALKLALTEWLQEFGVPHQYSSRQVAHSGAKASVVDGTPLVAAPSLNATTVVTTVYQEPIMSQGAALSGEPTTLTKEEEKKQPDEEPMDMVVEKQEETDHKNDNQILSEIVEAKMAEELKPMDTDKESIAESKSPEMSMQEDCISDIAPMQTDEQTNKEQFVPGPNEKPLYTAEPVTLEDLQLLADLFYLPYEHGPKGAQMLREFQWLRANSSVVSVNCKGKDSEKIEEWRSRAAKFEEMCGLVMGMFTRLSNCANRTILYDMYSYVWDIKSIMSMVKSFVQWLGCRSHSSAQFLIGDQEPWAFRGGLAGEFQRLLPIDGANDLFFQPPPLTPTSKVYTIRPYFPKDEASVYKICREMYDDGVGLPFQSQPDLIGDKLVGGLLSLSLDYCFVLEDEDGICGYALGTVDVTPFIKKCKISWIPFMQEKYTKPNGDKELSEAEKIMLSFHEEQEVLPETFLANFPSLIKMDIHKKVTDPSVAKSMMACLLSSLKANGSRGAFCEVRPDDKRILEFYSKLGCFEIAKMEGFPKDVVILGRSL
Assay: Human O-GlcNAcase enzyme inhibition assay
Type: biochemical
Details: 20 nM His-Tagged hOGA, 10 μM FL-GlcNAc, McIlvaine's Buffer pH 6.5, 60 min at room temperature, fluorescence; read-out: OGA IC50
Method: Example B01: Human O-GlcNAcase Enzyme Inhibition Assay
5 μl of the appropriate concentration of a solution of inhibitor in Mcllvaine's Buffer (pH 6.5) in 2% DMSO (for a dose response curve calculation) is added into each well of a 384-well plate (Greiner, 781900). Then, 20 nM of His-Tagged hOGA and 10 μM of FL-GlcNAc (Fluorescein mono-beta-D-(2-deoxy-2-N-acetyl) glucopyranoside; Marker Gene Technologies Inc, M1485) were added to the 384-well plate for a final volume of 20 μl. After incubation for 60 min at room temperature, the reaction was terminated by the addition of 10 μL of stop buffer (200 mM glycine, pH 10.75). The level of fluorescence (λexc 485 nm; (λemm 520 nm) was read on a PHERAstar machine. The amount of fluorescence measured was plotted against the concentration of inhibitor to produce a sigmoidal dose response curve to calculate an IC50. All individual data was corrected by subtraction of the background (Thiamet 3 uM=100% inhibition) whilst 0.5% DMSO was considered as the control value (no inhibition).

Row | SMILES | IC50
1 | c1cc(N2CCOCC2)ccc1CN1CCCC1c1ccc2c(c1)OCCO2 (racemic) [Example 23, 4-(4-((2-(2,3-dihydrobenzo[b] [1,4]dioxin-6-yl)pyrrolidin-1-yl)methyl)phenyl)morpholine] | 200 to 1000 nM
2 | c1ccc(-c2ccc(CN3CCCC3c3ccc4c(c3)OCCO4)cc2)nc1 (racemic) [Example 29, 2-(4-((2-(2,3-dihydrobenzo[b] [1,4]dioxin-6-yl)pyrrolidin-1-yl)methyl)phenyl)pyridine] | 200 to 1000 nM
3 | Cn1cc(-c2ccc(CN3CCCC3c3ccc4c(c3)OCCO4)cc2)cn1 (single isomer, unassigned) [Example 6, (S)-4-(4-((2-(2,3-dihydrobenzo[b] [1,4]dioxin-6-yl)pyrrolidin-1-yl)methyl)phenyl)-1-methyl-1H-pyrazole or (R)-4-(4-((2-(2,3-dihydrobenzo[b] [1,4]dioxin-6-yl)pyrrolidin-1-yl)methyl)phenyl)-1-methyl-1 H-pyrazole] | < 50 nM
4 | Cn1cc(-c2ccc(CN3CCCC3c3ccc4c(c3)OCCO4)cn2)cn1 (racemic) [Example 5, 5-((2-(2,3-dihydrobenzo[b] [1,4]dioxin-6-yl)pyrrolidin-1-yl)methyl)-2-(1-methyl-1H-pyrazol-4-yl)pyridine] | 50 to 200 nM
5 | O=C1CSCCN1c1ccc(CN2CCCC2c2ccc3c(c2)OCCO3)cc1 (racemic) [Example 67, 4-(4-((2-(2,3-dihydrobenzo[b] [1,4]dioxin-6-yl)pyrrolidin-1-yl)methyl)phenyl)thiomorpholin-3-one] | 200 to 1000 nM
6 | CS(=O)(=O)N1CCN(c2ccc(CN3CCCC3c3ccc4c(c3)OCCO4)cc2)CC1 (racemic) [Example 36, 1-(4-((2-(2,3-dihydrobenzo[b] [1,4]dioxin-6-yl)pyrrolidin-1-yl)methyl)phenyl)-4-(methylsulfonyl)piperazine] | 200 to 1000 nM
7 | N#Cc1cnc(-c2ccc(CN3CCCC3c3ccc4c(c3)OCCO4)cc2)s1 (racemic) [Example 60, 2-(4-((2-(2,3-dihydrobenzo[b] [1,4]dioxin-6-yl)pyrrolidin-1-yl)methyl)phenyl)thiazole-5-carbonitrile] | 50 to 200 nM
8 | Fc1cc(-c2ccccn2)ccc1CN1CCCC1c1ccc2c(c1)OCCO2 (racemic) [Example 41, 2-(4-((2-(2,3-dihydrobenzo[b] [1,4]dioxin-6-yl)pyrrolidin-1-yl)methyl)-3-fluorophenyl)pyridine] | 200 to 1000 nM
9 | c1cnn(-c2ccc(CN3CCCC3c3ccc4c(c3)OCCO4)cc2)c1 (racemic) [Example 16, 1-(4-((2-(2,3-dihydrobenzo[b] [1,4]dioxin-6-yl)pyrrolidin-1-yl)methyl)phenyl)-1H-pyrazole] | 50 to 200 nM
10 | CC(=O)Nc1ncc(CN2CCCC2c2ccc3c(c2)OCCO3)s1 (racemic) [Example 50, N-(5-((2-(2,3-dihydrobenzo[b] [1,4]dioxin-6-yl)pyrrolidin-1-yl)methyl)thiazol-2-yl)acetamide] | 200 to 1000 nM
11 | Cc1cc(-c2cccnc2)ccc1CN1CCCC1c1ccc2c(c1)OCCO2 (single isomer, unassigned) [Example 33, (S)-3-(4-((2-(2,3-dihydrobenzo[b] [1,4]dioxin-6-yl)pyrrolidin-1-ylmethyl)-3-methylphenyl)pyridine or (R)-3-(4-((2-(2,3-dihydrobenzo[b] [1,4]dioxin-6-yl)pyrrolidin-1-yl)methyl)-3-methylphenyl)pyridine] | 50 to 200 nM
12 | COc1cccc(-c2ccc(CN3CCCC3c3ccc4c(c3)OCCO4)cc2)n1 (racemic) [Example 151] | 200 to 1000 nM
13 | O=C1CSCCN1c1ccc(CN2CCCC2c2ccc3c(c2)OCCO3)cc1 (single isomer, unassigned) [Example 74] | 1000 to 10000 nM
14 | Cc1noc(C)c1-c1ccc(CN2CCCC2c2ccc3c(c2)OCCO3)cc1 (racemic) [Example 54, 4-(4-((2-(2,3-dihydrobenzo[b] [1,4]dioxin-6-yl)pyrrolidin-1-yl)methyl)phenyl)-3,5-dimethylisoxazole] | 1000 to 10000 nM
15 | Brc1cncc(Oc2ccc(CN3CCCC3c3ccc4c(c3)OCCO4)cc2)c1 (racemic) [Example 153] | 200 to 1000 nM
16 | c1cnn(-c2ccc(CN3CCCC3c3ccc4c(c3)OCCO4)cc2)c1 (single isomer, unassigned) [Example 27, (S)-1-(4-((2-(2,3-dihydrobenzo[b] [1,4]dioxin-6-yl)pyrrolidin-1-yl)methyl)phenyl)-1 H-pyrazole or (R)-1-(4-((2-(2,3-dihydrobenzo[b] [1,4]dioxin-6-yl)pyrrolidin-1-yl)methyl)phenyl)-1H-pyrazole] | 50 to 200 nM
17 | Cc1cc(-c2cccnc2)ccc1CN1CCCC1c1ccc2c(c1)OCCO2 (racemic) [Example 38, 3-(4-((2-(2,3-dihydrobenzo[b] [1,4]dioxin-6-yl)pyrrolidin-1-yl)methyl)-3-methylphenyl)pyridine] | 50 to 200 nM
18 | c1csc(-c2ccc(CN3CCCC3c3ccc4c(c3)OCCO4)cc2)n1 (racemic) [Example 58, 2-(4-((2-(2,3-dihydrobenzo[b] [1,4]dioxin-6-yl)pyrrolidin-1-yl)methyl)phenyl)thiazole] | 50 to 200 nM
19 | Fc1cccc(Oc2ccc(CN3CCCC3c3ccc4c(c3)OCCO4)cc2)n1 (racemic) [Example 157] | 200 to 1000 nM
20 | CS(=O)(=O)N1CCN(c2ccc(CN3CCCC3c3ccc4c(c3)OCCO4)cc2)CC1 (single isomer, unassigned) [Example 53, (S)-1-(4-((2-(2,3-dihydrobenzo[b] [1,4]dioxin-6-yl)pyrrolidin-1-yl)methyl)phenyl)-4-(methylsulfonyl)piperazine or (R)-1-(4-((2-(2,3-dihydrobenzo[b] [1,4]dioxin-6-yl)pyrrolidin-1-yl)methyl)phenyl)-4-(methylsulfonyl)piperazine] | 50 to 200 nM
21 | c1ccc(-c2ccc(CN3CCCC3c3ccc4c(c3)OCCO4)cc2)nc1 (single isomer, unassigned) [Example 40, (S)-2-(4-((2-(2,3-dihydrobenzo[b] [1,4]dioxin-6-yl)pyrrolidin-1-yl)methyl)phenyl)pyridine or (R)-2-(4-((2-(2,3-dihydrobenzo[b] [1,4]dioxin-6-yl)pyrrolidin-1-yl)methyl)phenyl)pyridine] | 50 to 200 nM
22 | Cn1cc(-c2ccc(CN3CCCC3c3ccc4c(c3)OCCO4)nc2)cn1 (single isomer, unassigned) [Example 145] | 200 to 1000 nM
23 | Brc1cnn(-c2ccc(CN3CCCC3c3ccc4c(c3)OCCO4)cc2)c1 (racemic) [Example 51, 4-bromo-1-(4-((2-(2,3-dihydrobenzo[b] [1,4]dioxin-6-yl)pyrrolidin-1-yl)methyl)phenyl)-1H-pyrazole] | 50 to 200 nM
24 | CS(=O)(=O)c1ccc(CN2CCCC2c2ccc3c(c2)OCC3)cc1 (racemic) [Example 10, 2-(2,3-dihydrobenzofuran-6-yl)-1-(4-(methylsulfonyl)benzyl)pyrrolidine] | 200 to 1000 nM
25 | c1cnc(-c2ccc(CN3CCCC3c3ccc4c(c3)OCCO4)cc2)nc1 (single isomer, unassigned) [Example 75, (S)-2-(4-((2-(2,3-dihydrobenzo[b] [1,4]dioxin-6-yl)pyrrolidin-1-yl)methyl)phenyl)pyrimidine or (R)-2-(4-((2-(2,3-dihydrobenzo[b] [1,4]dioxin-6-yl)pyrrolidin-1-yl)methyl)phenyl)pyrimidine] | 50 to 200 nM
